Consider 1 molecule from article PMC12067741, “Inhibition of SOD1 trimerization is a novel drug target for ALS disease” (Translational Neurodegeneration, 2025).

A short description of one data set: Plasma stability. Type of data set: in vitro ADME. Conditions: SD rat plasma, after 120 min of incubation.
Data set [1] has as its system MT-SOD1 inclusions in SK-N-SH cells. As to the kind of experiment: SOD1 inclusions by immunofluorescence in SK-N-SH cells. Type of data set: cell-based. Conditions: SK-N-SH cells expressing MT-SOD1, 24 h. The procedure: Cells on coverslips were washed with PBS, fixed with 4% PFA for 30 min at room temperature and then permeabilized in 0.1% Triton X-100/PBS for 10 min. After incubation in blocking solution (goat serum diluted 1:200 in PBS) for 1 h, cells were incubated with primary antibodies in blocking buffer for overnight at 4 °C. Finally, the cells were incubated with FITC- or Rhodamine-conjugated secondary antibody at 4 °C for 4 h. The nucleus was stained with 4, 6-diamidino-2-phenylindole and the endoplasmic reticulum (ER) was stained using the ER-Tracker Red dye for 10 min. Cells were washed three times with PBS, then the coverslips were mounted with the mounting solution (H-5501; Vector Laboratories, Burlingame, CA) and observed by fluorescence microscopy using Zeiss Apotome 2 (Software; Axiovision 4.8, Baden-Württemberg, Germany) and CELENA X (Logos Biosystems, Annandale, VA).
Cells with SOD1 aggregation were counted in the fluorescent images. Depending on the intensity of SOD1, cells with SOD1 aggregates were counted in randomly selected fields and quantified as a percentage to the total cells counted. In addition, to calculate the colocalization of the three colors of SOD1, we counted the cells where the three colored images overlapped at a point of high intensity. […]
Fig. S1. […] After incubation, cells were fixed with 4 % PFA and observed under the fluorescence microscope. […]

Data set [2] deals with WT-SOD1 (Azurite, mCherry2) and MT (G93A)-SOD1 (GFP). As to the kind of experiment: Co-inclusion of three colour variants of SOD1 in SK-N-SH cells. Type of data set: cell-based. Conditions: PRG-A-04 5 μmol/L, 24 h. As to the method: Cells with SOD1 aggregation were counted in the fluorescent images. Depending on the intensity of SOD1, cells with SOD1 aggregates were counted in randomly selected fields and quantified as a percentage to the total cells counted. In addition, to calculate the colocalization of the three colors of SOD1, we counted the cells where the three colored images overlapped at a point of high intensity. Cell counting was performed by three independent observers, who were blinded to the transfection or chemical treatment group.
Fig. 2 PRG-A-04 suppresses SOD1 aggregation through targeting trimeric SOD1. a-b SOD1 trimer destabilizer inhibited MT-SOD1 aggregation. (a) SOD1 (GFP) expression was observed under fluorescence microscope (white arrows; strong intensity of SOD1). Scale bar, 10 μm. EV, empty vector. (b) SOD1 inclusion-positive cells (white arrows; strong intensity of SOD1) were counted and the percentages are shown as mean ± SD. c PRG-A-04 reduced SOD1 oligomerization induced by SOD1 trimer stabilizer (G147P). d-g PRG-A-04 directly bound to the mutant form of SOD1. […] (g) For quantitative analysis, the number of PRG-A-04 molecules per 100 SOD1 molecules was counted. […] (i) Cells with WT and MT-SOD1 co-inclusions were counted and the percentages are shown as mean ± SD. For cell counting, five fluorescence images were randomly selected. […]

`COc1cc(C=CCOC2Cc3cc4ccc(=O)oc4cc3OC2(C)C)ccc1[N+](=O)[O-]` (stereo not drawn) [PRG-A-04]: in the data set “Plasma stability”, the “stability in plasma” value is on record as “stable”. In addition, the “effect on SOD1 inclusions” value in data set [1] is recorded as “suppressed SOD1 inclusions”. For the same molecule, the “co-inclusion of WT and MT-SOD1” value in data set [2] is recorded as “disappeared”.
